Values after ≈ are worked out from the molar mass of the structure shown. Read-outs that look alike come from different tables or passages of the source.
What was measured:
[1] = Maximum solubility of ITZA and azole analogues in solvents (HPLC); format: physicochemical; details: for solubility at 30 min: organic solvent or mixture, thermodynamic from solid
Description: ITZA and its analogues were dissolved in various solvents incubated at 37° C. for 30 minutes, cooled down to room temperature, centrifuged at 14,000 rpm for 1 min. The supernatant was analyzed using HPLC to determine the maximum solubility of ITZA and its azole analogues.
In a first step the maximum ITZA solubility in various single solvents was determined. To this end, ITZA and its analogs were dissolved in various solvents, incubated at 37° C. for 30 minutes, cooled down to room temperature, centrifuged at 14,000 rpm for 1 min. The supernatant was analyzed using HPLC to determine the maximum solubility of the respective agent.
The solubility of ITZA was determined in several individual vehicles. Briefly, a known amount of ITZA drug, formulated as a powder (Sigma Inc., St Louis, Mo.), was equilibrated in the respective solvent at RT over 1-4 hours. An aliquot was removed, filtered, and prepared for HPLC to determine maximum solubility at room temperature. Based on the ITZA solubility in each vehicle, different solvents were mixed according to the cosolvency principle in an attempt to arrive at an enhanced stable solubility. […] The stock formulation was then diluted with a final diluent, i.e. NS or D5W or DlOW, to yield a stable use-formulation. The desired range of the final use-formulation was between 1 and 5 mg/mL, as it would result in a final volume that could be safely and conveniently infused intravascularly.
An excess of ITZA as a powder was added to a multitude of chemical solvents (Table 1) at RT. Each mixture was intermittently vortexed, placed in a dark environment and checked visually for up to 4 hours for evidence of solubilization. Following centrifugation to remove solid particles, small samples were withdrawn after consecutive time intervals and the ITZA concentration was determined by HPLC as described.

[2] = test system: Candida cruzei (ATCC strain 6258); experiment: Yeast susceptibility test, MIC (CLSI standard); format: cell-based; details: tested range 38 μg/mL to 0.03 μg/mL, read out at 24 hours, average of three experiments
Description: (§1) Briefly, susceptibility tests were set-up using a standardized methodology (CLSI […] standard). Drugs were diluted into RPMI-Mops medium (Yeast One Broth (Sensititer, product Y3462, Trek Diagnostic Systems, Cleveland, Ohio) Sensititer Lot number 151416SA-expiration date 2011-01). Two different strains of yeast were tested, the standardized evaluation/read out was performed at 24 hours after the start of each culture. The tests were repeated twice and all MIC (minimum inhibitory concentration) values are reported as an average of the three experiments.

Candida parapsilosis = experiment: Yeast susceptibility test, MIC (CLSI standard); format: cell-based; details: tested range 38 μg/mL to 0.03 μg/mL, read out at 24 hours, average of three experiments
Description: as §1

[3] = test system: Aspergillus fumigatus (ATCC strain 90906); experiment: Mold susceptibility test, MIC (CLSI M38A); format: cell-based
Description: (§2) Two hyaline molds were tested with a standard read out at 48 hrs:
(§3) Tested drug range: 75 μg/mL to 0.07 μg/mL
(§4) To further determine the antifungal activity of the compounds in the new formulation systems we investigated the efficacy of the various agents against additional strains of mucor and Aspergillus (9/-16-9/20/2010) (The Rhizomucor was a clinical isolate from a patient isolate) and the Aspergillus fumigatus (ATCC strain 90906) used was a repeat from the previously described experiment. Again, the susceptibility tests were set-up using the standardized test method (CLSI M38A). The used drugs were provided in the described H3 final use-formulation that has been previously described. All drugs were diluted in RPMI-Mops medium (YeastOne, Sensititer Lot 151416SA, expiration date January 2011).
As before two different molds were tested with a standard read out at 48 hr: • Drug dilution range 75 μg/mL to 0.07 μg/mL. • Aspergillus fumigatus (ATCC strain 90906) Zygomycete (Clinical Lab isolate, MDACC) […]

[4] = test system: Aspergillus fumigatus (Clinical Lab isolate); experiment: Mold susceptibility test, MIC; format: cell-based; details: tested range 75 μg/mL to 0.07 μg/mL, read out at 48 hrs
Description: as §2, §3, §1

[5] = test system: Zygomycete (Clinical Lab isolate, MDACC); experiment: Extended mold testing, MIC (CLSI M38A); format: cell-based; details: H3 final use-formulation, range 75 μg/mL to 0.07 μg/mL, 48 hr
Text: as §4
As before two different molds were tested with a standard read out at 48 hr: • Drug dilution range 75 μg/mL to 0.07 μg/mL. • Aspergillus fumigatus (ATCC strain 90906) Zygomycete (Clinical Lab isolate, MDACC)

[6] = solvent H3D (no benzyl alcohol), single determination, read-out: Azole solubility, [Drug] mg/mL
[7] = solvent H3D (no benzyl alcohol), read-out: Azole solubility, Average mg/mL
[8] = solvent H3G (no benzyl alcohol), single determination, read-out: Azole solubility, [Drug] mg/mL
[9] = solvent H3G (no benzyl alcohol), read-out: Azole solubility, Average mg/mL
[10] = solvent H3D (no benzyl alcohol), single determination
[11] = solvent H3G (no benzyl alcohol), single determination
[12] = Aspergillus fumigatus, 48 h, read-out: MIC
[13] = extended mold testing (repeat), H3 final use-formulation, range 75 μg/mL to 0.07 μg/mL, 48 hr
[14] = tested range 75 μg/mL to 0.07 μg/mL, read out at 48 hrs, first experiment

Question: With CC(=O)N1CCN(c2ccc(OCC3COC(Cn4ccnc4)(c4ccc(Cl)cc4Cl)O3)cc2)CC1 (stereo not drawn) [KZSA, Ketoconazole] as the compound, how does the solubility at 30 min [1, 6] read?
Answer: 15.4 mg/mL (≈ 29000 µM)

Question: What about the solubility at 30 min [1, 7] of the same compound?
Answer: 15.3 mg/mL (≈ 28800 µM)

Question: And the solubility at 30 min [1, 8]?
Answer: 14.8 mg/mL (≈ 27800 µM)

Question: And the solubility at 30 min [1, 9]?
Answer: 14.9 mg/mL (≈ 28000 µM)

Question: What about the “Azole solubility, [Drug] mg/mL” value [1, 10] of the same compound?
Answer: 15.2 mg/mL

Question: What about the “Azole solubility, [Drug] mg/mL” value [1, 11] of the same compound?
Answer: 15.1 mg/mL

Question: What about the MIC ([2]; Candida, ATCC6258, 24 h, read-out: MIC) of the same compound?
Answer: 0.15 µg/mL (≈ 0.282 µM)

Question: And the MIC (Candida parapsilosis; 24 h, read-out: MIC)?
Answer: 0.03 µg/mL (≈ 0.0565 µM)

Question: What about the MIC ([3]; Aspergillus fumigatus, ATCC90906, 48 h, extended mold testing (repeat), H3 final use-formulation, range 75 μg/mL to 0.07 μg/mL, 48 hr, read-out: MIC) of the same compound?
Answer: 10 µg/mL (≈ 18.8 µM)

Question: And the MIC ([3]; Aspergillus fumigatus, ATCC90906, 48 h, tested range 75 μg/mL to 0.07 μg/mL, read out at 48 hrs, first experiment, read-out: MIC)?
Answer: 20 µg/mL (≈ 37.6 µM)

Question: And the MIC [4, 12]?
Answer: 20 µg/mL (≈ 37.6 µM)

Question: And the MIC ([5]; read-out: MIC)?
Answer: 38 µg/mL (≈ 71.5 µM)

Question: Which MIC [2] does the source give for COC(=O)Nc1nc2ccc(C(=O)c3ccccc3)cc2[nH]1 [MBZSA, Mebendazole] here?
Answer: all grew (no drug effect)

Question: And the MIC (Candida parapsilosis)?
Answer: all grew

Question: What about the MIC [3, 13] of the same compound?
Answer: all grew (no inhibition)

Question: And the MIC [3, 14]?
Answer: all grew (no drug effect)

Question: What about the MIC [4, 12] of the same compound?
Answer: 5 µg/mL (≈ 16.9 µM)

Question: What about the MIC [5] of the same compound?
Answer: all grew

Question: For OC(Cn1cncn1)(Cn1cncn1)c1ccc(F)cc1F [FZSA, Fluconazole], which solubility at 30 min [1, 6] is on record?
Answer: 38.6 mg/mL (≈ 126000 µM)

Question: And the solubility at 30 min [1, 7]?
Answer: 36.1 mg/mL (≈ 118000 µM)

Question: And the solubility at 30 min [1, 8]?
Answer: 28.4 mg/mL (≈ 92700 µM)

Question: And the solubility at 30 min [1, 9]?
Answer: 30.3 mg/mL (≈ 98900 µM)

Question: And the “Azole solubility, [Drug] mg/mL” value [1, 10]?
Answer: 33.5 mg/mL

Question: And the “Azole solubility, [Drug] mg/mL” value [1, 11]?
Answer: 32.2 mg/mL

Question: And the MIC [2]?
Answer: all grew

Question: And the MIC (Candida parapsilosis; 24 h, read-out: MIC)?
Answer: 1.2 µg/mL (≈ 3.92 µM)

Question: And the MIC [3, 13]?
Answer: all grew

Question: And the MIC [3, 14]?
Answer: all grew

Question: What about the MIC [4] of the same compound?
Answer: all grew

Question: And the MIC [5]?
Answer: all grew

Question: Which results are given for CCC(C)n1ncn(-c2ccc(N3CCN(c4ccc(OCC5COC(Cn6cncn6)(c6ccc(Cl)cc6Cl)O5)cc4)CC3)cc2)c1=O (stereo not drawn) [ITZA(ref 2), itraconazole]?
Answer: MIC [2]: 0.3 µg/mL (≈ 0.425 µM); MIC (Candida parapsilosis): 0.15 µg/mL (≈ 0.213 µM); MIC [3, 13]: 0.3 µg/mL (≈ 0.425 µM); MIC [3, 14]: 0.6 µg/mL (≈ 0.85 µM); MIC [4]: 0.3 µg/mL (≈ 0.425 µM); MIC [5]: 2.5 µg/mL (≈ 3.54 µM)

Source: patent US10307418B2, “Azole pharmaceutical formulations for parenteral administration and methods for preparing and using the same as treatment of diseases sensitive to azole compounds” (Platform Brightworks Two, Ltd., priority 2010, dated 2019)
